One assay deals with Cyclophilin B (CypB) (Homo sapiens (Human), UniProt P23284). As to the kind of experiment: Cyclophilin PPIase enzymatic assay (chymotrypsin coupled), CypB. The format is biochemical.
Cyclophilin B (CypB), sequence (P23284 34-216): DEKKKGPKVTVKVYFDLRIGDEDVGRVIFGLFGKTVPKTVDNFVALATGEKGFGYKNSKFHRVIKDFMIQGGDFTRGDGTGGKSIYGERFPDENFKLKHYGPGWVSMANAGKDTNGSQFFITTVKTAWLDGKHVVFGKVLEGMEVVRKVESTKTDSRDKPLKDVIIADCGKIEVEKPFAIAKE
Conditions: not given
On the procedure:
(§1) Cyclophilin A, B protein carrying a hexahistidine tag (His-Tag) at the C-terminus, were expressed in Escherichia coli and purified. Briefly, cultures of C41(DE3) cells were grown at 37° C. for ˜1 h until the culture reached an optical density of 0.6 at 600 nm, and induced with 1 mM isopropyl β-D-thiogalactoside for 4 h at 37° C. or overnight at 22° C. for cylophilin A and cyclophilin B, respectively. Cell pellets (1 L) were resuspended in a lysis buffer (20 mM NaH2PO4 (pH 7.8), 300 mM NaCl, 7 mM β-mercaptoethanol, 1 mg/ml lysozyme, 0.1 U/μl Desoxyribonuclease and complete protease inhibitor tablets (Roche)). The sonicated cell lysates were clarified by centrifugation at 10 000 g for 45 min at 4° C., chromatographed on a Ni-NTA column and washed with buffer: (20 mM NaH2PO4 (pH7.8), 300 mM NaCl, 50 mM imidazole, 7 mM β-mercaptoethanol, 10% glycerol). The bound protein was eluted in 1 ml fractions with buffer: (20 mM NaH2PO4 (pH7.8), 300 mM NaCl, 250 mM imidazole, 7 mM β-mercaptoethanol, 10% glycerol) and monitored by the Bradford colorimetric assay. The purity of each cyclophilin was determined by Coomassie-stained SDS-PAGE analysis.
(§2) The reaction was initiated by adding 20 μL of 3.2 mM peptide substrate (Suc-Ala-Ala-cis-Pro-Phe-pNA) in LiCl/TFE solution with rapid inversion. […] The final concentration of LiCl in the assay was 20 mM; TFE was present at a concentration of 4% (v/v). Absorbance readings were collected every 1 s by spectrophotometer. The inhibition assays of compounds were performed in the same manner as mentioned above. A 5 μL aliquot of the compounds in DMSO was added to the cyclophilin solution in the assay buffer. The assay was started by the addition of the substrate. Cyclosporine A was used as control in all measurement. The percentage inhibition of cyclophilin PPiase activity were calculated from slopes and values obtained represent an average of at least two independent measurements.
Usually inhibition stands for the drop in the measured response relative to a control, in per cent. In turn, `CCOC(=O)C(Cc1cccc(O)c1)NC(=O)NCc1ccc(N)cc1` (stereo not drawn) [Compound F612, ethyl 2-(3-(4-aminobenzyl)ureido)-3-(3-hydroxyphenyl)propanoate] had an inhibition at 100 µM of 26.7%.

Regarding `Nc1ccc(CNC(=O)Nc2cnc3sccn3c2=O)cc1` [Compound F608, 1-(4-aminobenzyl)-3-(5-oxo-5H-thiazolo[3,2-a]pyrimidin-6-yl)urea], the inhibition at 100 µM is 38.7%.

As to `CCOC(=O)CNC(=S)NCc1ccc(N)nc1` [Compound F569, ethyl 2-(3-((6-aminopyridin-3-yl)methyl)thioureido)acetate], at 100 µM the inhibition was 17.1%.

For the molecule `CCOC(=O)CNC(=O)NCc1ccc(F)cc1` [Compound F513, ethyl 2-(3-(4-fluorobenzyl)ureido)acetate], the inhibition at 100 µM stood at 23.3%.

On to `CCOC(=O)CNC(=O)NCc1ccc(O)cc1O` [Compound F572, ethyl 2-(3-(2,4-dihydroxybenzyl)ureido)acetate], for which the inhibition at 100 µM turned out to be 27.6%.

In turn, `CCN(OCc1ccccc1)C(=O)CNC(=O)NCc1ccc(N)nc1` [Compound F599, 2-(3-((6-aminopyridin-3-yl)methyl)ureido)-N-(benzyloxy)-N-ethylacetamide] displayed an inhibition at 100 µM of 71.8%.

Turning to `CN(C(=O)CNC(=O)NCc1ccc(N)nc1)C1CCCCC1` [Compound F595, 2-(3-((6-aminopyridin-3-yl)methyl)ureido)-N-cyclohexyl-N-methylacetamide], testing at 100 µM gave an inhibition of 29.1%.

Molecule `CCOC(=O)CNC(=O)NCc1ccc(N)nc1` [Compound F536, ethyl 2-(3-((6-aminopyridin-3-yl)methyl)ureido)acetate] had an inhibition at 100 µM of 47.6%.

In turn, `CCOC(=O)CNC(=O)NCc1ccc(O)cc1` [Compound F576, ethyl 2-(3-(4-hydroxybenzyl)ureido)acetate] yielded an inhibition at 100 µM of 18.4%.

Consider `CCOC(=O)CNC(=O)NCc1cccc2c1OCCO2` [Compound F525, ethyl 2-(3-((2,3-dihydrobenzo[b][1,4]dioxin-5-yl)methyl)ureido)acetate], for which 100 µM produced 21.6% inhibition.

For `COC(=O)[C@H]1CCCN1C(=O)CNC(=O)NCc1ccc(N)cc1` [Compound F558, (R)-methyl 1-(2-(3-(4-aminobenzyl)ureido)acetyl)pyrrolidine-2-carboxylate], the inhibition at 100 µM turned out to be 25.9%.

The molecule `COc1ccccc1C1CCCN1C(=O)CNC(=O)NCc1ccc(N)nc1` (stereo not drawn) [Compound F587, 1-((6-aminopyridin-3-yl)methyl)-3-(2-(2-(2-methoxyphenyl)pyrrolidin-1-yl)-2-oxoethyl)urea] registered an inhibition at 100 µM of 99%.

`CCOC(=O)CNC(=O)NCc1cc(C)on1` [Compound F526, ethyl 2-(3-((5-methylisoxazol-3-yl)methyl)ureido)acetate] yielded an inhibition at 100 µM of 21.2%.

The molecule `COc1cccc(CNC(=O)CNC(=O)NCc2ccc(N)cc2)c1` [Compound F563, 2-(3-(4-aminobenzyl)ureido)-N-3-methoxybenzylacetamide] returned an inhibition at 100 µM of 16.4%.

With `CCOC(=O)CNC(=O)NCCc1ccc(O)cc1` [Compound F517, ethyl 2-(3-(4-hydroxyphenylethyl)ureido)acetate], the inhibition at 100 µM amounted to 20%.

In turn, `Nc1ccc(CNC(=O)NCC(=O)N2CCC(O)CC2)cc1` [Compound F561, 1-(4-aminobenzyl)-3-(2-(4-hydroxy-piperidin-1-yl)-2-oxoethyl)urea] displayed an inhibition at 100 µM of 15.1%.

Regarding `CCOC(=O)CNC(=O)NCCNc1ccccc1` [Compound F515, ethyl 2-(3-(2-(phenylamino)ethyl)ureido)acetate], the inhibition at 100 µM amounted to 18.2%.

`Nc1ccc(CNC(=O)Nn2cnc3ccccc3c2=O)cc1` [Compound F600, 1-(4-aminobenzyl)-3-(4-oxoquinazolin-3(4H)-yl)urea]: the inhibition at 100 µM is 65.8%.

In turn, `CSc1cccc(CN(C(=O)CNC(=O)NCc2ccc(N)nc2)C(C)C)c1` [Compound F592, 2-(3-((6-aminopyridin-3-yl)methyl)ureido)-N-isopropyl-N-(3-(methylthio)benzyl)acetamide] gave an inhibition at 100 µM of 18.9%.

`CCOC(=O)CNC(=O)NCc1cc(Cl)cc(Cl)c1` [Compound F520, ethyl 2-(3-(3,5-dichlorobenzyl)ureido)acetate] yielded an inhibition at 100 µM of 18.9%.

`Cc1noc(C2CCCN2C(=O)CNC(=O)NCc2ccc(N)nc2)n1` (stereo not drawn) [Compound F593, 1-((6-aminopyridin-3-yl)methyl)-3-(2-(2-(3-methyl-1,2,4-oxadiazol-5-yl)pyrrolidin-1-yl)-2-oxoethyl)urea] returned an inhibition at 100 µM of 23.4%.

In turn, `CCOC(=O)CNC(=O)NCc1c(F)cccc1NC(C)=O` [Compound F565, ethyl 2-(3-(2-acetamido-6-fluorobenzyl)ureido)acetate] gave an inhibition at 100 µM of 34.5%.

As to `CN(C(=O)CNC(=O)NCc1ccc(N)nc1)c1ccc(F)cc1` [Compound F597, 2-(3-((6-aminopyridin-3-yl)methyl)ureido)-N-(4-fluorophenyl)-N-methylacetamide], the inhibition at 100 µM worked out at 46.3%.

The molecule `Nc1ccc(CNC(=O)NCC(=O)N2CCCC2c2ccccn2)cn1` (stereo not drawn) [Compound F586, 1-((6-aminopyridin-3-yl)methyl)-3-(2-oxo-2-(2-(pyridin-2-yl)pyrrolidin-1-yl)ethyl)urea] came in with an inhibition at 100 µM of 38.4%.

The molecule `CCOC(=O)CNC(=O)NCc1cccc(C(F)(F)F)c1` [Compound F514, ethyl 2-(3-(3-trifluoromethylbenzyl)ureido)acetate] registered an inhibition at 100 µM of 19.5%.

The same assay, now with this note: CypB.
Broadly, the IC50 is the concentration needed to halve the response being measured. A low value points to greater potency in that assay. Molecule `Nc1ccc(CNC(=O)NCC(=O)N2CCCCC2C(=O)N2CCCC2)cc1` (stereo not drawn) [Compound F542] yielded an IC50 of 36.6 µM.

`COc1ccccc1C1CCCN1C(=O)CNC(=O)NCc1ccc(N)nc1` (stereo not drawn) [Compound F587, 1-((6-aminopyridin-3-yl)methyl)-3-(2-(2-(2-methoxyphenyl)pyrrolidin-1-yl)-2-oxoethyl)urea] returned an IC50 of 5.2 µM.

The same assay, now with this note: activity test at 100 μM on CypB.
Take `Nc1ccc(CNC(=O)NCC(=O)NCc2cccc(-n3cncn3)c2)cc1` [Compound F562, 2-(3-(4-aminobenzyl)ureido)-N-(3-(1H,1,2,4-triazol-1-yl)benzyl)acetamide]: the “Inhibition (%)” value is listed as 28.0%.

Consider `CCOC(=O)CNC(=O)NCc1ccc(N)c2ccccc12` [Compound F577, ethyl 2-(3-((4-aminonapht-1-yl)methyl)ureido)acetate], for which the “Inhibition (%)” value stood at 47.3%.

On to `CC(C)N(Cc1cccc2c1OCO2)C(=O)CNC(=O)NCc1ccc(N)nc1` [Compound F590, 1-(((6-aminopyridin-3-yl)methyl)ureido)-N-(benzo[d][1,3]dioxol-4-ylmethyl)-N-isopropylacetamide], for which the “Inhibition (%)” value is 18.2%.

For `Nc1ccc(CNC(=O)NCC(=O)N2CCCCC2C(=O)N2CCCC2)cc1` (stereo not drawn) [Compound F542], the “Inhibition (%)” value was 58.5%.

As for `Nc1ccc(CNC(=O)NCC(=O)NCc2cccc(CN3CCOCC3)c2)cc1` [Compound F559], the “Inhibition (%)” value worked out at 21.9%.

On to `Nc1ccc(CNC(=O)NCC(=O)N2CCCO2)cn1` [Compound F585, 1-((6-aminopyridin-3-yl)methyl-3-(2-isoxazolidin-2-yl)-2-oxoethyl)urea], for which the “Inhibition (%)” value stood at 35.0%.

In the case of “2-(3-(4-aminobenzyl)ureido)-N-2-phenyl-ethyl-N-methylacetamide [Compound F551]”, the “Inhibition (%)” value is recorded as 20.8%.

Turning to “(S)-1-((6-aminopyridin-3-yl)methyl)-3-(2-oxo-2-(2-(pyridin-3-yl)pyrrolidin-1-yl)ethyl)urea [Compound F588]”, the “Inhibition (%)” value is recorded as 23.2%.

With `CCOC(=O)CNC(=O)NCc1ccccc1-c1ccco1` [Compound F528], the “Inhibition (%)” value is 38.9%.

As for `Nc1ccc(CNC(=O)NCC(=O)N2CCOCC2)cn1` [Compound F594], the “Inhibition (%)” value came out at 37.0%.

Turning to `CCOC(=O)CNC(=O)NCc1cccc(-c2ncccn2)c1` [Compound F524], the “Inhibition (%)” value is given as 15.4%.

`CCOC(=O)CNC(=O)NCc1cccc2ccccc12` [Compound F490, ethyl 2-(3-((napht-1-yl)methyl)ureido)acetate]: the “Inhibition (%)” value amounted to 33.1%.

As for `Nc1ccc(CNC(=O)Nc2cnc3sccn3c2=O)cn1` [Compound F596, 1-((6-aminopyridin-3-yl)methyl)-3-(5-oxo-5H-thiazolo[3,2-c]pyrimidin-6-yl)urea], the “Inhibition (%)” value is 19.8%.

For the next assay, the target named is Cyclophilin A (CypA) (Homo sapiens (Human), UniProt P62937). As to the kind of experiment: Cyclophilin PPIase enzymatic assay (chymotrypsin coupled), CypA. The format is biochemical. Particulars: activity test at 100 μM on CypA. As for the experimental part: as §1, §2
Cyclophilin A (CypA), sequence (P62937 whole entry): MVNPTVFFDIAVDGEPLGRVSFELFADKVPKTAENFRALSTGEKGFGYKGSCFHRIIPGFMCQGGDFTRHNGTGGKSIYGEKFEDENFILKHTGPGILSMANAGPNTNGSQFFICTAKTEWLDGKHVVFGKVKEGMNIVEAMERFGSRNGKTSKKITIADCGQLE
Take `Nc1ccc(CNC(=O)NCC(=O)N2CCCCC2C(=O)N2CCCC2)cc1` (stereo not drawn) [Compound F542]: the “Inhibition (%)” value came to 60.1%.

Staying with this assay, now noted: activity test at 100 μM on CypA; read-out: Inhibition (%).
Consider `CCOC(=O)C(Cc1cccc(O)c1)NC(=O)NCc1ccc(N)cc1` (stereo not drawn) [Compound F612, ethyl 2-(3-(4-aminobenzyl)ureido)-3-(3-hydroxyphenyl)propanoate], for which the inhibition at 100 µM stood at 26.3%.

Take `Nc1ccc(CNC(=O)Nc2cnc3sccn3c2=O)cc1` [Compound F608, 1-(4-aminobenzyl)-3-(5-oxo-5H-thiazolo[3,2-a]pyrimidin-6-yl)urea]: the inhibition at 100 µM was 26.3%.

Take `Nc1ccc(CNC(=O)NCC(=O)N2CCCC(O)C2)cc1` (stereo not drawn) [Compound F540, 1-(4-aminobenzyl)-3-(2-(3-hydroxy-piperidin-1-yl)-2-oxoethyl)urea]: the inhibition at 100 µM turned out to be 32.6%.

Regarding `CCOC(=O)CNC(=O)NCc1nc2ccccc2[nH]1` [Compound F538, ethyl 2-(3-((1H-benzo[d]imidazol-2-yl)methyl)ureido)acetate], the inhibition at 100 µM worked out at 15.5%.
